Experiments:
non-tumor cells = conditions: cited from earlier work
[1] = tested on: Hsp90 derived from transformed cells overexpressing HER-2; conditions: cited from earlier work
NCI 60-cell panel = conditions: read-out: Growth Inhibition of 50% (GI50); cited from earlier work
human Hsp90α = human Hsp90α (Homo sapiens, UniProt P07900); conditions: cited from earlier work
monocytic THP-1 cells [2] = experiment: HSP70 protein levels in monocytic THP-1 cells (autoradiograph, FIG. 1); assay type: cell-based; conditions: β-actin as standard
From the text: FIG. 1 is an autoradiograph showing HSP70 levels in monocytic THP-1 cells treated with NVP-AUY922 or 17-DMAG. β-actin levels are shown as a standard.

[3] = in vivo; cited from earlier work
[4] = cited from earlier work
mice with SCD = experiment: LPS challenge in Townes sickle cell (SS) and AA mice treated with AUY922; assay type: in vivo, mouse
Experimental: FIG. 4 is a schematic diagram of an experimental procedure for assaying HSP90 inhibitors for the treatment SCD.
FIG. 5A is a bar graph of HSP70/GAPDH (relative units) for mice treated with phosphate buffered saline (PBS) or AUY922 (25 mg/Kg B.W.) daily for four days. FIG. 5B is a bar graph of HSP70/GAPDH (relative units) for mice treated with 0.1 μg/g B.W. of LPS or 0.1 μg/g B.W. of LPS plus AUY922 (25 mg/Kg B.W.).
Cytokine (ng/ml) for AA or SS mice treated with control, AUY, LPS, or LPS+AUY is shown.
Mouse Phenotype: B6;129-Hba^tm1(HBA)Tow Hbb^tm2(HBG1,HBB*)Tow/Hbb^tm3(HBG1,HBB)Tow/J
Entire Mouse Globin Locus Removed and Replace by Human Hemoglobin S or A.
AA, SS, & SA mice are available.

monocytic THP-1 cells [5] = experiment: Pro-inflammatory cytokine protein expression (Table 1); assay type: cell-based; conditions: for IL-6 Protein Expression: Control 7.40; for IL-10 Protein Expression: Control 9.89; for IL-1β Protein Expression: Control 15.24; for IL-8 Protein Expression: Control 110.44; for TNF-α Protein Expression: Control 1611.19
monocytic THP-1 cells [6] = experiment: Pro-inflammatory cytokine gene expression by qRT-PCR (Table 1); assay type: cell-based; conditions: Control 1.0
Experimental: The major pro-inflammatory cytokines that are responsible for early inflammatory responses include IL1-α, IL1-β, IL-6, and TNF-α. […] Inflammatory cytokines and tissue factor gene expression were evaluated using quantitative real-time polymerase chain reaction (qRT-PCR). Amount of tissue factor was determined using a one stage clotting assay calibrated against a known amount of tissue factor (INNOVIN).

[7] = preclinical data; cited from earlier work
Hsp70 = conditions: cited from earlier work

In the case of C=CCNC1=C2C[C@@H](C)C[C@H](OC)[C@H](O)[C@@H](C)/C=C(\C)[C@H](OC(N)=O)[C@@H](OC)/C=C\C=C(/C)C(=O)NC(=CC1=O)C2=O [17-AAG, 17-allylamino-17-demethoxygeldanamycin], the “toxicity toward non-tumor cells” value (non-tumor cells) is listed as “low toxicity”, the IC50 ([1]; Hsp90 from HER-2 overexpressing cells (BT474, N87, SKOV3, SKBR3) or BT474 breast carcinoma cells, read-out: 1050 values) is listed as 5 to 6 nM and the “higher affinity for Hsp90 derived from transformed cells” value ([1]; transformed cells overexpressing HER-2, comparator not printed (non-tumor cells are named just before)) is listed as “more than 100 ×”. The GI50 (NCI 60-cell panel) was 120 nM.

For CO[C@H]1/C=C\C=C(/C)C(=O)NC2=CC(=O)C(NCCN(C)C)=C(C[C@@H](C)C[C@H](OC)[C@H](O)[C@@H](C)/C=C(\C)[C@@H]1OC(N)=O)C2=O [17-DMAG, 17-Dimethylaminoethylamino-17-demethoxygeldanamycin], the “binding to ATPase site of human Hsp90α” value (human Hsp90α) is given as “high affinity”, the HSP70 protein levels (monocytic THP-1 cells [2]) is given as “increases HSP70 protein levels” and the GI50 (NCI 60-cell panel) is given as 51 nM. For the same molecule, the bioavailability [3] was “excellent bioavailability” and the water solubility [4] was “water-soluble”.

With CCNC(=O)c1noc(-c2cc(C(C)C)c(O)cc2O)c1-c1ccc(CN2CCOCC2)cc1 [AUY922, 5-(2,4-dihydroxy-5-isopropylphenyl)-N-ethyl-4-(4-(morpholinomethyl)phenyl)isoxazole-3-carboxamide] the HSP70 protein levels (monocytic THP-1 cells [2]) was “increases HSP70 protein levels”, the “inflammation in in vivo model system for SCD” value (mice with SCD; SS mice) was “significant decrease in inflammation” and the “plasma levels of Il-1-Beta” value (mice with SCD; SS mice) was “reduces plasma levels”. For the same molecule, the “plasma levels of TNF-alpha” value (mice with SCD; SS mice) was “reduces plasma levels”, the “LPS-induced Il-6 response” value (mice with SCD; mice with SCD) was “ablates the profound LPS-induced Il-6 response” and the “endothelial cell activation (sVCAM)” value (mice with SCD; mice with SCD, PBS, AUY922, LPS or LPS+AUY) was “blocks endothelial cell activation”. The HSP70/GAPDH pharmacodynamic response (mice with SCD; mice, AUY922 25 mg/Kg B.W. daily for four days, with or without LPS 0.1 μg/g B.W.) was “meets pharmacodynamic requirements”, the “IL-6 Protein Expression” value (monocytic THP-1 cells [5]; AUY922 alone) was 7.10 and the “IL-10 Protein Expression” value (monocytic THP-1 cells [5]; AUY922 alone) was 4.20. The “IL-1β Protein Expression” value (monocytic THP-1 cells [5]; AUY922 alone) was 14.24, the “IL-8 Protein Expression” value (monocytic THP-1 cells [5]; AUY922 alone) was 130.61 and the “TNF-α Protein Expression” value (monocytic THP-1 cells [5]; AUY922 alone) was 1437.12. For the same molecule, the “IL-10 Protein Expression” value (monocytic THP-1 cells [5]; LPS + AUY922, LPS alone 41.18) was 2.95, the “IL-6 Protein Expression” value (monocytic THP-1 cells [5]; LPS + AUY922, LPS alone 156.51) was 6.80 and the “IL-1β Protein Expression” value (monocytic THP-1 cells [5]; LPS + AUY922, LPS alone 775.64) was 14.57. For the same molecule, the “IL-8 Protein Expression” value (monocytic THP-1 cells [5]; LPS + AUY922, LPS alone 839.99) was 117.87, the “TNF-α Protein Expression” value (monocytic THP-1 cells [5]; LPS + AUY922, LPS alone 4391.73) was 1587.49 and the “IL-1β Gene Expression (Fold)” value (monocytic THP-1 cells [6]; AUY922 alone) was 0.9 Fold. For the same molecule, the “IL-6 Gene Expression (Fold)” value (monocytic THP-1 cells [6]; AUY922 alone) was 1.2 Fold, the “IL-8 Gene Expression (Fold)” value (monocytic THP-1 cells [6]; AUY922 alone) was 1.0 Fold and the “IL-10 Gene Expression (Fold)” value (monocytic THP-1 cells [6]; AUY922 alone) was 30.2 Fold. The “TNF-α Gene Expression (Fold)” value (monocytic THP-1 cells [6]; AUY922 alone) was 0.8 Fold, the “TNF-α Gene Expression (Fold)” value (monocytic THP-1 cells [6]; LPS + AUY922, LPS alone 7.1) was 6.2 Fold and the “IL-6 Gene Expression (Fold)” value (monocytic THP-1 cells [6]; LPS + AUY922, LPS alone 42.5) was 3.25 Fold. For the same molecule, the “IL-8 Gene Expression (Fold)” value (monocytic THP-1 cells [6]; LPS + AUY922, LPS alone 235.5) was 795.5 Fold, the “IL-10 Gene Expression (Fold)” value (monocytic THP-1 cells [6]; LPS + AUY922, LPS alone 350.4) was 200.1 Fold and the “IL-1β Gene Expression (Fold)” value (monocytic THP-1 cells [6]; LPS + AUY922, LPS alone 1950) was 20 Fold.

For CC(C)c1cc(-c2n[nH]c(=O)n2-c2ccc3c(ccn3C)c2)c(O)cc1O [Ganetespib], the “cardiac or liver toxicity” value [7] is given as “no evidence of cardiac or liver toxicity” and the Hsp70 expression (Hsp70) is given as “induces the overexpression of Hsp70”.

In the case of C=CCNc1c(O)cc2c(O)c1C[C@@H](C)C[C@H](OC)[C@H](O)[C@@H](C)/C=C(\C)[C@H](OC(N)=O)[C@@H](OC)/C=C\C=C(/C)C(=O)N2.Cl [IPI-504, Retaspimycin hydrochloride], the bioavailability [3] is listed as “excellent bioavailability” and the water solubility [4] is listed as “water-soluble”.
